Experimental data reported in patent US8278293B2, “Diazo bicyclic Smac mimetics and the uses thereof” (The Regents of the University of Michigan, priority 2007, dated 2012).
pIC50, pKd: −log10 of the molar value. Like-named read-outs stand apart in the source and are kept apart here. Square brackets hold non-standard residues; d marks the D form. Peptide text beside a SMILES is read from it. * marks the point of attachment. 5FAM = O=C1OC2(c3ccc(O)cc3Oc3cc(O)ccc32)c2ccc(C(=O)*)cc21; Abu = CC[C@H](N)C(=O)O

Legend:
cIAP2 BIR3 domain = biological target: T1, cIAP2 BIR3 domain (Homo sapiens, UniProt Q13489); experiment: FP competitive binding assay to cIAP2 BIR3; details: FP tracer; read-out: affinity of tracer for cIAP2
T1 construct: cIAP2 BIR3 domain (residues 238-349); His-tag

cIAP1 BIR3 domain = biological target: T2, cIAP1 BIR3 domain (Homo sapiens, UniProt Q13490); experiment: FP competitive binding assay to cIAP1 BIR3; details: FP tracer; read-out: affinity of tracer for cIAP1
T2 construct: cIAP1 BIR3 domain (residues 253-363); His-tag

ML-IAP BIR3 domain = biological target: T3, ML-IAP BIR3 domain (Homo sapiens, UniProt Q96CA5); experiment: FP competitive binding assay to ML-IAP BIR3; details: FP tracer; read-out: affinity of tracer for ML-IAP
T3 construct: ML-IAP BIR3 domain (residues 63-179), fused to a His-tag; His-tag
T3 sequence (Q96CA5 63-179): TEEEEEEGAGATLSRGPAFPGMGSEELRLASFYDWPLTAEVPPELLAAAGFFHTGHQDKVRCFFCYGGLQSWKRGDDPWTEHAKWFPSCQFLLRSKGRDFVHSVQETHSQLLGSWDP
Experimental: In order to test the binding ability of conformationally constrained Smac mimetics to other IAP proteins (ML-IAP, cIAP1, and cIAP2) binding assay conditions were developed and optimized. The recombinant cIAP1 BIR3 domain (residues 253-363), cIAP2 BIR3 domain (residues 238-349), and ML-IAP BIR3 domain (residues 63-179), fused to a His-tag, were used in the binding assays. Competitive binding assays for other IAP proteins were performed similarly as that described for XIAP BIR3. […] The following protein concentration and tracer were used in the competitive assay: 10 nM cIAP1 and 2 nM SM5F, 25 nM cIAP2 and 2 nM SM5F, 300 nM ML-IAP and 5 nM SM5F
The competitive binding curves of SM-406 and SM-428 to BIR^3 domains of four members of IAP proteins were determined using a fluorescence-polarization-based binding assay. The IAP proteins tested include: (A) XIAP; (B) cIAP1; (C) cIAP2; (D) ML-IAP.

XIAP BIR3 = XIAP BIR3 (Homo sapiens, UniProt P98170); experiment: Fluorescence polarization (FP) based competitive binding assay to XIAP BIR3; set-up: human XIAP (residues 241-356) fused to His-tag; His-tag; details: FP binding, XIAP BIR3 30 nM, SM5F 5 nM
[1] = test system: SK-Mel-2 melanoma cancer cell line; experiment: Cell growth inhibition, WST-based assay, SK-Mel-2; details: Homo sapiens, SK-MEL-2, 96 h; single agent, 4 days, FIG. 8
Experimental: (§1) The ability of SM-406 to inhibit cell growth as a single agent was tested in the MDA-MB-231 breast cancer cell line, SK-OV-3 and OVCAR-4 ovarian cancer cell lines and SK-MeI-2 melanoma cancer cell line. Cells were treated for 4 days. Cell growth was determined using a WST-based assay.

[2] = test system: OVCAR-4 ovarian cancer cell line; experiment: Cell growth inhibition, WST-based assay, OVCAR-4; details: Homo sapiens, OVCAR-4, 96 h; single agent, 4 days, FIG. 8
Experimental: as §1

[3] = test system: MDA-MB-231 breast cancer xenograft; experiment: MDA-MB-231 breast cancer xenograft model in nude mice; format: in vivo
Experimental: The ability of SM-406 (AT-406) to act as anti-tumor agent was tested in the MDA-MB-231 breast cancer xenograft (nude mice) model. SM-406 (AT-406) was administered qd×5 per week for two weeks. […] Body weight loss was less in weekly dosing (<5%) compared to the other dosing schedules.

SR leukemia cell line = experiment: Cell growth inhibition, WST-based assay, SR; details: 96 h; single agent, 4 days, FIG. 9
Experimental: (§2) The ability of SM-406 to inhibit cell growth as a single agent was tested in the HL-60 and SR leukemia cell lines. Cells were treated for 4 days. Cell growth was determined using a WST-based assay.

HL-60 leukemia cell line = experiment: Cell growth inhibition, WST-based assay, HL-60; details: Homo sapiens, HL-60, 96 h; single agent, 4 days, FIG. 9
Experimental: as §2

[4] = test system: SK-OV-3 ovarian cancer cell line; experiment: Cell growth inhibition, WST-8 assay, SK-OV-3; format: cell-based; details: Homo sapiens, SK-OV-3, 96 h, 4 days
Experimental: (§3) The effect of the compounds of the present invention on the growth of various cancer cell lines was tested. Cells were seeded in 96-well flat bottom cell culture plates at a density of 3000 cells/well with a tested compound and incubated at 37° C. in an atmosphere of 95% air and 5% CO2 for 4 days. […] Dojindo Molecular Technologies, Inc., Gaithersburg, Md.). […] The absorbance of the samples was measured at 450 nm using a ULTRA Tecan Reader (Molecular Device). […] The ability of SM-406 to inhibit cell growth as a single agent was tested in the MDA-MB-231 breast cancer cell line, SK-OV-3 and OVCAR-4 ovarian cancer cell lines and SK-MeI-2 melanoma cancer cell line. Cells were treated for 4 days. Cell growth was determined using a WST-based assay.

[5] = test system: MDA-MB-231 human breast cancer cell line; experiment: Cell growth inhibition, WST-8 assay, MDA-MB-231; format: cell-based; details: Homo sapiens, MDA-MB-231, 96 h, 4 days
Experimental: as §3

Sequence of XIAP BIR3 (P98170 241-356): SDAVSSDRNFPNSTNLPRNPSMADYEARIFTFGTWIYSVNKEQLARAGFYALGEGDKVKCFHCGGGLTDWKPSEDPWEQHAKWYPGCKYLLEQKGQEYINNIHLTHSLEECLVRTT
T1 sequence (Q13489 238-349): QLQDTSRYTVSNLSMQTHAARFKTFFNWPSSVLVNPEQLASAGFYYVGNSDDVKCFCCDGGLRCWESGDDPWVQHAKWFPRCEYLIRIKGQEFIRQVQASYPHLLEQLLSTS
T2 sequence (Q13490 253-363): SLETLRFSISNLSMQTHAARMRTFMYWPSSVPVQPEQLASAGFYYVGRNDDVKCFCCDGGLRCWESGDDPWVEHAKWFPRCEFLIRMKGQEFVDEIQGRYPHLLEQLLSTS

pKd (cIAP2 BIR3 domain) | pKd (cIAP1 BIR3 domain) | pKd (ML-IAP BIR3 domain) | pIC50 (XIAP BIR3) | pIC50 [1] | pIC50 [2] | dose-dependent weight loss ([3]; 100 and 200 mg/kg, qd×5 per week for two weeks) | pIC50 (SR leukemia cell line) | pIC50 (HL-60 leukemia cell line) | pIC50 ([4]; WST-8, read-out: SK-OV-3 IC50) | pIC50 ([4]; single agent, FIG. 8, read-out: IC50, cell growth, SK-OV-3) | pIC50 ([5]; WST-8, read-out: MDA-MB-231 IC50) | pIC50 ([5]; single agent, FIG. 8, read-out: IC50, cell growth, MDA-MB-231) | SMILES | body weight loss ([3]; 200 mg/kg, weekly dosing) [%]
8.18 | 8.39 | 6.80 | – | – | – | – | – | – | – | – | – | – | CC[C@H](N)C(=O)N[C@@H](CCCNC(=N)N)C(=O)N1CCC[C@H]1C(=O)N[C@@H](Cc1ccccc1)C(=O)N[C@@H](CCCCNC(=O)c1ccc2c(c1)C(=O)OC21c2ccc(O)cc2Oc2cc(O)ccc21)C(N)=O [SM5F, AbuRPF-K-(5-Fam)-NH2] (H-[Abu]RPFK(5FAM)-NH2; N-terminus assumed) | –
– | – | – | > 7.00 | 5.18 | 6.03 | up to 11% | 5.14 | 7.24 | > 6.00 | 6.62 | > 6.00 | 7.09 | CN[C@@H](C)C(=O)N[C@H]1CN(C(=O)CC(C)C)CC[C@H]2CC[C@@H](C(=O)NC(c3ccccc3)c3ccccc3)N2C1=O [SM-406] | < 5
